# Tests used:
# mice = experiment: Subchronic toxicity experiment, 90 d; type: in vivo
# Experimental: Animals were randomly divided into four groups: group 1 (half male and half female) (saline, 0 CFU/kg. bw/d), group 2 (half male and half female) (9.2×10^8 CFU/kg. bw/d), group 3 (half female and half male) ([…]), and group 4 (half male and half female) (92×10^8 CFU/kg. bw/d). A new bacterial suspension was prepared per day. The bacterial suspension was intragastrically administrated orally for 90 consecutive days at a dosage volume of 5 mL/kg. bw. Clinical signs were recorded per day, and detailed clinical observation was conducted once a week. The body weight, the food consumption, and the water intake were recorded once a week. At the end of the experimental period, blood samples were collected for hematological and serum biochemical analysis (refer to Embodiment 4). An autopsy was conducted on all animals, and the weight of main organs was recorded. A histopathological examination was performed on the major organs and tissue of all the animals in each group (refer to Embodiment 4). […]
# Determination of blood glucose: In a certain time interval after administration, at 0, 15, 30, 60, 90 and 120 min, the tail venous blood of the mouse was taken, and the blood glucose level of the mouse was measured using a blood glucose meter measurement method. […]
# [1] = system: DSS-induced ulcerative colitis mice; experiment: DSS-induced ulcerative colitis in mice; type: in vivo, C57BL/6J mice; conditions: 5.0% DSS mice, 1×10^10 CFU/mL intragastric daily 9 d
# Experimental: Animals and their management: male C57BL/6J mice (6 to 10-week-old, weighing 18 to 24 g) purchased from the Beijing Huafukang Biotechnology Co., Ltd, where procedures involving mice were carried out in strict accordance with international animal care standards, and approved by the Animal Protection Institute and Management Committee of Jilin Agricultural University. Adaptive culture was performed for 1 week, and mice were cultured at room temperature (25° C.±1° C.) in a cycle of 12 h of light and 12 h of darkness.
# Animal experimental design: 5.0% (wt/vol) DSS (molecular weight: 36,000 to 50,000) was added to drinking water of the mice for 3 consecutive days to induce colitis. Beginning on the first day of taking DSS, the A. muciniphila (viable or inactivated, with a concentration of 1×10^10 CFU/mL) was intragastrically administered per day for 9 consecutive days. C57BL/6J mice were randomly divided into four groups: a control group, a DSS model group (DSS), an AKK PRO group, and an inactivated AKK PRO group (mAKK PRO). Physiological indicators of the mice in each group were observed.
# Physiological indicators: The physiological indicators are used for assessing health statuses of the mice. The individual scores of the mice were combined to generate disease activity indices (DAI), including changes of body weight, food intake, and fecal consistency. After the mice were euthanized, the colon length and the liver weight of each mouse in each group were measured, and an immune organ index was calculated according to the following formula: liver index=liver weight (mg)/body weight (g) [Wang, X., et al., Troxerutin Improves Dextran Sulfate Sodium-Induced Ulcerative Colitis in Mice. J Agric Food Chem, 2021. 69 (9): p. 2729-2744.].
# [2] = Cell surface hydrophobicity (bacterial adherence to hydrocarbon, xylene); type: physicochemical; conditions: at 60 min
# Experimental: Based on the ability of bacteria to adhere to hydrocarbons, the cell surface hydrophobicity of strain AKK PROBIO was measured. A test of bacterial adherence to hydrocarbon (BATH) was conducted using xylene, and some modifications were made. Specifically, the strains were cultured overnight in a BHI medium at 37° C. Cells were collected by centrifugation (4° C.; 8000 rpm; 10 min), washed twice, and resuspended in a phosphate buffer (PBS, pH 7), and absorbance (OD600 nm) was adjusted to 0.5 to normalize bacteria number. Then, an equal volume of xylene was added and vortexed for 5 min to fully mix a two-phase system. After the incubation at room temperature for 15, 30, and 60 min, an aqueous phase was carefully removed, and its absorbance at 600 nm was measured using a spectrophotometer. The affinity (hydrophobicity) for the hydrocarbons was calculated using the following formula:
# [formula] • where P0 and P1 are absorbance values before and after extraction with the hydrocarbons, respectively.
# [3] = Tolerance to artificial intestinal juice; type: physicochemical; conditions: artificial intestinal juice pH 8.0, 37° C., at 240 min
# Experimental: (§1) Gastric juice ([…], 2 g/L NaCl, and 3.2 g/L pepsin, pH 2.0) and intestinal juice (6.8 g/L KH2 PO4, 10 g/L trypsin, and 0.1M NaOH, pH 8.0) were prepared, and then the gastric juice and the intestinal juice were filtered and sterilized using 0.22 μm sterile filter. […] The bacterial cells were washed twice with sterile saline and resuspended in 5 mL saline. A bacterial solution was mixed well with the sterile artificial gastric or intestinal juice in 1:1 (v/v). The mixture was shaken well, and then was placed in a constant-temperature incubator and culture was performed at 37° C.
# [4] = Tolerance to artificial gastric juice; type: physicochemical; conditions: artificial gastric juice pH 2.0, 37° C., at 240 min
# Experimental: as §1
substance,measurement,setting,value
Akkermansia muciniphila [AKK PROBIO],pathological injury to the livers and kidneys,mice; 90 d,no significant pathological injury
same,weight of major organs,"mice; 90 d, heart, liver, spleen, kidneys, thymus, brain, testes, lungs, pancreas, stomach, intestine, vs control group",substantially no significant difference
same,changes of blood glucose per week,"mice; 90 d, medium-dosage group (27.6×10^8) vs control saline group",significant difference
same,changes of blood glucose per week,"mice; 90 d, the other groups (low, high dosage) vs control group",no significant difference
same,level of the bile acid both in serum and liver,"mice; 90 d, the other groups vs control group",no significant difference
same,activity of glutamic oxalacetic transaminase in both serum and liver,"mice; 90 d, vs control group",no significant difference
same,activity of glutamic pyruvate transaminase in both serum and liver,"mice; 90 d, vs control group",no significant difference
same,blood glucose regulation ability (glucose tolerance and insulin tolerance),"mice; 90 d, vs control group",no significant difference
same,concentration of blood urea nitrogen in serum,"mice; 90 d, vs control group",no significant difference
same,content of creatinine in serum,"mice; 90 d, vs control group",no significant difference
same,content of total protein in both serum and liver,"mice; 90 d, vs control group",no significant difference
same,level of glucose in both serum and liver,"mice; 90 d, vs control group",no significant difference
same,level of the cholesterol in both liver and serum,"mice; 90 d, vs control group",no significant difference
same,level of the triglyceride in both liver and serum,"mice; 90 d, vs control group",no significant difference
same,changes of body weight per week,"mice; 90 d, vs control saline group",no significant difference
same,changes of food intake per week,"mice; 90 d, vs control saline group",no significant difference
same,various blood indicators,"mice; 90 d, vs control saline group",no significant difference
same,death,"mice; intragastric 90 consecutive days, high, medium, low dosage (92×10^8, 27.6×10^8, 9.2×10^8 CFU/kg. bw/d)",no death occurs
same,immune organ index (liver index),[1]; vs DSS group,significantly decreased
same,colon length,"[1]; vs DSS group, P<0.05",significantly increased
same,DAI score,[1]; vs model group,lower
same,body weight reduced,[1]; vs model group,less
same,food intake reduced,[1]; vs model group,less
same,hydrophobicity,[2],≥ 30%
same,survival rate in intestinal juice,[3],≥ 80%
same,survival rate in gastric juice,[4],around 85%

# From patent US12606795B2 (Thankcome Biological Science and Technology (SuZhou) Co., …, priority 2023, dated 2026)
